Assay results published in PMC8348236, “Improving the Utility of a Dynorphin Peptide Analogue Using Mannosylated Glycoliposomes” (International Journal of Molecular Sciences, 2021).

What was measured:
[1] = peptide without delivery system; cited from earlier work
Description: Initially, the ability of DS1 and DS2 to entrap and protect dynantin from proteolytic degradation in human plasma ex vivo was compared (Figure 3A).

[2] = target: T1, KOR (Mus musculus, UniProt P33534); assay: In vivo striatal dopamine modulation after intranasal administration; conditions: female BALB/c mice, 2.0 µg dynantin, 20 min after administration, LC/MS, average ± SD of 5 mice
Description: The ability of the glycoliposome delivery systems to improve both the delivery and activity of dynantin in the brain was studied in an in vivo mouse model. Female BALB/c mice (5 per group) were intranasally administered dynantin (2.0 µg dose) alone or entrapped in either DS1 or DS2. Mice were sacrificed 20 min later and blood (sera), lungs and brains were collected. […] Striatum tissue was immediately removed and neurotransmitter levels analyzed by LC/MS.
Dynantin (2.0 µg total dose) was administered intranasally to female BALB/c mice (5 per group) either alone or entrapped with DS1 or DS2 (1:5 ratio of peptide: particles). The mice were euthanized 20 min after administration and the lung, brain, and blood (sera) were collected. Brains were immediately dissected on ice to obtain striatum tissue from which dopamine was extracted and its levels analyzed by LC/MS in the presence of 0.1% formic acid (A). […]
For each mouse, blood was placed in sera tubes, which were spun at 10,000 rpm for 5 min and sera collected. […] The amount of dopamine extracted was analyzed via LC/MS (5 µL injections) and quantified using the dopamine: dopamine-D2 peak area ratio and a standard curve that was generated using increasing concentrations of dopamine in the presence of a set concentration of the dopamine-D2 internal standard. […]

[3] = target: T1, KOR; assay: In vitro dopamine modulation in fresh mouse striatum homogenates; conditions: mouse (C57BL/6) striatal homogenate, 90 min, 4 °C in the dark, LC/MS, average ± SD, n = 5, PBS control 0.54 ± 0.07
Description: The gently homogenized tissue was treated with either PBS or dynantin at 1 and 10 µM concentrations for 90 min, after which dopamine levels were analyzed.
Striatal tissue was collected from the brains of sacrificed mice (n = 15), gently homogenized and then treated with either PBS (60 µL, n = 5) or dynantin in PBS at a concentration of either 1 µM (60 µL, n = 5) or 10 µM (60 µL, n = 5) for 90 min at 4 °C in the dark. Dopamine was extracted and its levels analyzed by LC/MS in the presence of 0.1% formic acid.
Analyses were performed using an Acquity Class H UPLC system with an Acquity QDa detector (Waters Limited, Mississauga, ON, Canada). Separations took place on an Acquity UPLC BEH C18 column, 1.7 µm, 100 mm × 2.1 mm(Waters Limited, Mississauga, ON, Canada), and were achieved using a binary gradient elution (Table 3) of water and acetonitrile (both with 0.1% formic acid, v/v) and a uniform flow rate of 0.4 mL/min. […]
Male C57BL/6 mice (n = 15) were sacrificed by CO2 asphyxiation and cervical dislocation. […] The amount of dopamine extracted was analyzed via LC/MS (5 µL injections) and quantified using the dopamine: dopamine-D2 peak area ratio and a standard curve that was generated using increasing concentrations of dopamine in the presence of a set concentration of the dopamine-D2 internal standard. […]

[4] = in vivo; conditions: female, BALB/c, mouse, inhaled or intranasal, 2 ug
[5] = female BALB/c mice, intranasal, 2.0 µg, 20 min; average ± SD of 5 mice

T1 sequence (P33534 whole entry): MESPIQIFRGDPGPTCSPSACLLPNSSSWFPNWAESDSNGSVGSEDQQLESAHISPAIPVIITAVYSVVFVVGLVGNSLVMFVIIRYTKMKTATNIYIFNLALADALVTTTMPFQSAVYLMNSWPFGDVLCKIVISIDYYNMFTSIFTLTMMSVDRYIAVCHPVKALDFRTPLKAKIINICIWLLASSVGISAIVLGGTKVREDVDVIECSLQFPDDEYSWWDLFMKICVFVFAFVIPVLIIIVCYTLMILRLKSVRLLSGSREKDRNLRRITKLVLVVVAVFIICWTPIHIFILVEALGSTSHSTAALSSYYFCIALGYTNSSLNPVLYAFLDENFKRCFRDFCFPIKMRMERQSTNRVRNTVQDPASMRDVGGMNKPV

For `CC[C@H](C)[C@H](NC(=O)[C@H](CCCNC(=N)N)NC(=O)[C@H](CCCNC(=N)N)NC(=O)[C@H](CC(C)C)NC(=O)[C@H](Cc1ccccc1)NC(=O)CNC(=O)CNC(=O)[C@@H](C)Cc1c(C)cc(O)cc1C)C(=O)N[C@@H](CCCNC(=N)N)C(=O)N1CCC[C@H]1C(=O)N[C@@H](CCCCN)C(N)=O` [Dynantin], the “time to rapid and complete degradation in human plasma” value [1] is listed as ≤ 12 h, the “striatal dopamine level in vivo” value [2] is listed as 0.58 ± 0.05 ng/mg and the “striatal dopamine level, 1 µM dynantin” value ([3]; 1 µM in PBS) is listed as 0.78 ± 0.10 ng/mg. For the same molecule, the “striatal dopamine level, 10 µM dynantin” value ([3]; 10 µM in PBS) was 0.98 ± 0.09 ng/mg, the tissue level at time at 20 min ([4]; brain (remaining tissue after removal of striatum)) was 560 ± 200 ng/g and the tissue level at time at 20 min ([4]; lung) was 560 ± 120 ng/g. The level at 20 min ([4]; serum) was 1300 ± 160 ng/mL, the “percentage of total dose recovered, Brain” value [5] was 8.15 ± 3.06% and the “percentage of total dose recovered, Lung” value [5] was 4.93 ± 0.89%. For the same molecule, the “percentage of total dose recovered, Sera” value [5] was 21.66 ± 3.99%.
